Earlier results on 3 compounds are cited in article PMC10360060, “Electroosmotic Perfusion, External Microdialysis: Simulation and Experiment” (ACS Chemical Neuroscience, 2023).

Read-outs that look alike come from different tables or passages of the source.

The conditions of data set [1]: saline solution, parameter used in simulations, ref Li and Carr, Scheibel, Häckel et al.[65]−[67]. From the text: Table 1 List of Parameters Used in Simulations | column: magnitude
The subject of data set [2] is insulin regulated aminopeptidase (IRAP). The conditions noted are these: perfusion of inhibitor in rat neocortex in vivo, online capillary LC-MS2. From the text:
Following our discovery that brain tissue has a significant ζ-potential,[36] we learned how to use this property of brain tissue to infuse solutes into brain and organotypic hippocampal slice cultures (OHSCs) using controlled electrical current[37],[38] and to infuse substrates of known ectoenzymes and determine information about these enzymes in OHSCs[39]−[43] and in vivo.[44] For the in vivo work, direct laser writing by two-photon polymerization was used to manufacture a device (Supporting Information, section S3). A pointed, narrow capillary adjacent to a microdialysis probe was the source ...

Where [3] appears, read: 37 °C (body temperature, tissue).

Regarding GGFL [hydrolysis product of YGGFL], the Diffusion coefficients is 5.0 × 10^–10 m^2/s in data set [1] (22 °C (lab temperature)) and 6.5 × 10^–10 m^2/s in data set [1] (setting [3]). As for “YGGFL [leucine enkephalin, natural neuropeptide substrate infused through tissue]”, the Diffusion coefficients in data set [1] (22 °C (lab temperature)) is 4.2 × 10^–10 m^2/s; in data set [1] (setting [3]), 5.5 × 10^–10 m^2/s. For the compound `CCOC(=O)C1=C(NC(C)=O)Oc2cc(O)ccc2C1c1cccnc1` (centres unmarked) [HFI-419], the “inhibition of YGGFL hydrolysis” value in data set [2] was “dose-dependent inhibition”.
